From US20160184276A1, “Sphingosine kinase inhibition for the treatment and prevention of obstetrical disorders” (priority 2014, published 2016)
“Also recorded” adds a separate entry of the source.

Key:
[1] = system: LPS-stimulated timed pregnant mice; assay: LPS-induced preterm birth in timed pregnant mice (in vivo assay)
Protocol: (§1) In Vivo Assay. A total of 17 timed pregnant embryonic day (E) 15.5 mice, weighing between 28 and 35 g, were used for in vivo studies. The control group (n=7) was injected intraperitoneally (ip) with 50 mg/kg lipopolysaccharide (LPS) (serotype 026:B6; Sigma) dissolved in 0.5 ml PBS at T=0 and 50 μl PEG 400 at T=1 and 7 h. The treatment group (n=7) was also injected ip with the same dose of LPS and then injected with 50 mg/kg SphK inhibitor (SKI II) dissolved in PEG 400 at T=1 and 7 h. The sham group (n=3) was injected ip with 0.5 ml PBS at T=0 and 50 μl PEG 400 at T=1 and 7 h. After injections at T=7 h, mice were continuously observed for time of delivery and number of pups dropped. […] All mice were euthanized by carbon dioxide asphyxiation and necropsied to confirm pregnancy and the number of pups retained in utero was recorded. The retained placentas and uteri were harvested and stored at −80° C. or in 10% neutral buffered formalin at room temperature.
(§2) Statistical Analysis. For in vivo studies, the effect of SKI II on the percent of LPS stimulated mice delivering and on the percent of pups rescued from spontaneous abortion was evaluated with the Chi square and Fisher exact tests, respectively. Differences in rates of PTB and rates of pups delivered over time were evaluated with log-rank (Mantel-Cox) or Gehan-Breslow-Wilcoxon test. The U-test along with Analysis of Variance (ANOVA) and Tukey's multiple comparison test were used to evaluate differences in inflammatory infiltration in histologic sections. Differences in mean expression of cytokine proteins in immunoblots and in immunohistochemistry were determined using ANOVA with Tukey's multiple comparison test.

[2] = system: Tnfα, Il-1β, Il-6 and ECE-1 in placentas; assay: Western blot analysis of placental lysates from LPS-stimulated mice; assay type: in vivo; conditions: SKI II treated group vs LPS control group
Protocol: as §1
Gel Electrophoresis. Frozen placentas were allowed to thaw on ice. Tissues were homogenized in 0.25 ml ice cold lysis buffer, using a Polytron homogenizer. The samples were homogenized on ice for 2 min at 15 min intervals. This procedure was continued for 2 h and the final homogenates were centrifuged at 10,000×g for 10 min. Volumes of supernatant containing […] of protein based on BCA assay, using bovine serum albumin as standard, were diluted in_NuPAGE® LDS sample buffer and the samples were heated at 95° C. for 5 minutes. Bis-Tris gels were used for protein separation. Gel electrophoresis was carried out in an XCell SureLock Mini-Cell apparatus. The gels were allowed to run for 45 minutes with MOPS running buffer at 125 mA and 200V. Proteins were then transferred to a polyvinylidene difluoride (PVDF) membrane, using an XCell II Blot Module. Transfer was carried out for 2 h on ice at a 170 mA current and a constant voltage of 30 V with NuPAGE transfer buffer
Western Blot Analysis. […] The membranes were analyzed for different proteins using their respective primary antibodies, i.e. TNFα, IL-1β, IL-6, IL-10 and ECE-1 diluted in the blocker solution overnight at 4° C. […] They were then treated with ECL Plus western blotting detection system and the chemiluminescence produced by the chemical reaction was detected by exposure to an autoradiography film. […] The protein content was quantified using Image J software (from NIH). […]
(§3) Statistical Analysis. For in vivo studies, the effect of SKI II on the percent of LPS stimulated mice delivering and on the percent of pups rescued from spontaneous abortion was evaluated with the Chi square and Fisher exact tests, respectively. […]

[3] = system: Tnfα, Il-1β, Il-6 in placental labyrinth; assay: Immunohistochemistry of cytokines in placental labyrinth; assay type: in vivo, mice; conditions: SKI II vs LPS
Protocol: as §1
Immunohistochemistry (IHC). Formalin fixed paraffin-embedded tissue sections were used for IHC. The sections were deparaffinized by washing in xylene for 3 min. They were then rehydrated by washing in 100% isopropyl alcohol (2 changes), 95% alcohol, 80% alcohol, 70% alcohol and distilled water for 3 min each. The sections were incubated for 5 min with peroxidase block (3% hydrogen peroxide in water) and washed in distilled water for 3 min. […] Image-Pro Premier DAB analysis software was used for quantification of the results. […]
as §2, with “The U-test along with Analysis of Variance (ANOVA) and Tukey's multiple comparison test were used to evaluate differences in inflammatory infiltration in histologic sections.” left out

[4] = system: inflammatory cells (neutrophils) in placental labyrinth; assay: Histology (H & E): inflammatory cell infiltration of placental labyrinth; assay type: in vivo; conditions: SKI II vs LPS-induced mice; P<0.05
Protocol: as §1, with “The retained placentas and uteri were harvested and stored at −80° C. or in 10% neutral buffered formalin at room temperature.” left out
Histology. […] The number of polymorphonuclear neutrophils (PMNs) were counted in the three fields and the average value was recorded. Based on the average number of neutrophils per 400× field recorded, the slides were assigned grades as follows: 0:0-5 cells, 1:6-50 cells, 2:51-100 and 3:greater than 100. […]
as §3

Compound: Oc1ccc(Nc2nc(-c3ccc(Cl)cc3)cs2)cc1 [SKI II]
- Macroscopic congenital anomalies in pups ([1]; 97 pups of LPS control and SKI II groups): no macroscopic congenital anomalies
- Percent of mice delivered prematurely ([1]; LPS 50 mg/kg, SKI II 50 mg/kg at T=1 and 7 h, 1 out of 7 mice, 24 h): 14%
- Percent of pups dropped prematurely ([1]; LPS 50 mg/kg, SKI II 50 mg/kg at T=1 and 7 h, 2 out of 50 pups, 24 h): 4%
- Rate of pup survival (Kaplan-Meier survival curves, log rank test) ([1]; SKI II treated vs LPS control dams, P<0.0001): statistically significant difference; also recorded: significantly improved
- Litter size, fetal growth and development ([1]; observed throughout the study): No significant changes
- ECE-1 expression in placenta (Western blot) [2]: clearly suppressed; also recorded: significantly suppressed
- Il-1β expression in placental lysates (Western blot) ([2]; P<0.05): reduced; also recorded: significantly suppressed
- Il-6 expression in placental lysates (Western blot) ([2]; P<0.05): reduced; also recorded: significantly suppressed
- Tnfα expression in placental lysates (Western blot) ([2]; P<0.05): reduced; also recorded: significantly suppressed
- Placental labyrinthine level of Il-1β (immunohistochemistry) ([3]; P<0.0001): significantly reduced; also recorded: significantly suppressed
- Placental labyrinthine level of Tnfα (immunohistochemistry) ([3]; P<0.0001): significantly reduced; also recorded: significantly suppressed
- Placental labyrinthine level of Il-6 (immunohistochemistry) ([3]; P<0.01): significantly reduced; also recorded: significantly suppressed
- Inflammatory cell infiltrate in placental labyrinth [4]: significantly reduced; also recorded: subsides significantly
